Source: patent US20230079687A1, “ALKYLRESORCINOL HOMOLOGUES AS ANTIOXIDANTS” (The Penn State Research Foundation, priority 2021, published 2023)
“Also recorded” adds a separate entry of the source.

Columns and labels:
[1] = Formation of lipid hydroperoxides in antioxidant-treated crackers during storage; conditions: for course of lipid hydroperoxide formation after the lag phase (in words) / storage day at which lipid hydroperoxide concentration began to increase (end of lag phase): FIG. 1; for order of induction periods for lipid hydroperoxides: time to reach threshold [Hydroperoxides]=0.1 mM/g cracker, FIG. 3A; for storage day at which lipid hydroperoxide concentration began to increase (end of lag phase): autoxidized at 55° C. in the absence of light
Method: (§1) Based on the concentrations of the individual AR stock solutions previously determined, an appropriate volume, containing 153 μmol of the respective individual AR homologue, was measured into plastic centrifuge tubes to prepare individual AR homologue treatments. A treatment containing a mixture of the individual AR homologues, at their natural abundance in rye bran, was prepared by combining 25.3% of C17:0, 32.0% of C19:0, 22.6% of C21:0, 12.5% of C23:0, and 7.6% of C25:0. The same procedure was carried out with 10 mM stock solutions of orcinol, α-tocopherol, and butylated hydroxytoluene (BHT) and all treatments were dried under a stream of nitrogen. Ethanol (1.0 mL) was added to the dried treatments (and a control treatment containing no antioxidant) and mixed with 10 g of melted ISO. The antioxidant activity of each treatment was tested at 153 μmol because this corresponds to 500 ppm of C21:0 in the final cracker which is a typical antioxidant concentration used in bakery applications.
(§2) Antioxidant-treated ISO was melted at 90° C. for 10 minutes and mixed in a stand mixer (KSM95, KitchenAid, Benton Harbor, Mich., U.S.) using a beater blade for 1 minute (speed 2). Sifted flour, salt, and baking soda were added and mixed using a beater blade for 1 minute (speed 2). Water was added and mixed using a dough hook for 1 minute (speed 2). The additional flour was sprinkled onto the surface of a baking mat and incorporated into the dough by kneading by hand (30 folds). The dough was flattened by passing it through a pasta roller (KPSA, KitchenAid, Benton Harbor, Mich., U.S.) twice (thickness setting 2). The sheeted dough was cut into 2.5 cm×2.5 cm crackers and baked on an ungreased baking sheet for 9 minutes at 163° C. (FD 53-UL, Binder, Tuttlingen, Germany). After cooling to room temperature, crackers were coarsely crumbled using a mortar and pestle and weighed (0.5 g) into 10 mL amber glass headspace vials (Supelco Analytical, Bellefonte, Pa., U.S.), sealed with stainless steel screw caps with PTFE/silicone septa (Supelco Analytical, Bellefonte, Pa., U.S.), and allowed to autoxidize at 55° C. in the absence of light for up to 160 days. Crackers were analyzed for lipid hydroperoxides, headspace hexanal, and AR loss every 5 days for day 0-50, every 10 days for day 51-100, and every 20 days for the remainder of the storage time.
Lipid hydroperoxides were determined according to the method described by Shantha & Decker (1994) with slight modifications. Cracker samples (0.1 g) were finely ground using a mortar and pestle and mixed with 5.0 mL chloroform/methanol (2:1 (v/v)) by vortexing (10 seconds, 3 times). The hydroperoxide-containing lipid fraction was extracted and isolated by centrifugation at 2500×g for 10 minutes (Centrifuge 5702, A-4-38 Rotor, Eppendorf, Hamburg, Germany). To this extract (1.0 mL), 16.7 μL of an iron chloride solution (prepared by mixing 50 mL 66 mM FeSO4 in water with 50 mL 38 mM BaCl2 in 0.4 N HCl) was added followed by 16.7 μL of ammonium thiocyanate (3.9 M in water), and allowed to react at room temperature for 20 minutes. The absorbance of the samples was measured at 500 nm (GENESYS 180 UV-Vis Spectrophotometer, Thermo Fisher Scientific, Waltham, Mass., U.S.) and lipid hydroperoxides were quantified based on a standard curve prepared using cumene hydroperoxide.
Individual AR homologues (C17:0, C19:0, C21:0, C23:0, C25:0) were added separately and as a mixture (AR Mix) to ISO and subsequently incorporated into the cracker samples. The antioxidant activities of the AR homologues in crackers were compared to orcinol (a water-soluble AR), conventional antioxidants (i.e., α-tocopherol, BHT), and a control treatment (i.e., no added antioxidant). The crackers were allowed to autoxidize in the absence of light and primary (i.e., lipid hydroperoxides) and secondary products (i.e., headspace hexanal) of lipid oxidation were measured as a function of time.

[2] = Formation of headspace hexanal in antioxidant-treated crackers during storage; conditions: for storage day at which headspace hexanal began to increase (end of lag phase) / activity concluded from headspace hexanal formation: 153 μmol antioxidant in crackers; for storage day at which headspace hexanal began to increase (end of lag phase): autoxidized at 55° C. in the absence of light, FIG. 2; for order of induction periods for headspace hexanal: time to reach threshold [Hexanal]=1.0 mM/g cracker, FIG. 3B; for activity concluded from headspace hexanal formation: 55° C., compared to control crackers
Method: as §1, §2
Cracker samples were prepared for GC-MS analysis by adding 10 μL of 100 mg/L 2-methypentanal (internal standard) in methanol directly through the capped headspace vial's septum. The GC system consisted of a 7890B gas chromatograph (Agilent, Santa Clara, Calif., U.S.) with sample introduction by means of an autosampler (Robotic MultiPurpose Sampler, Gerstel, Mülheim, Germany). Samples were equilibrated for 10 minutes at 55° C. with continuous shaking. A 50/30 μm divinylbenzene/carboxen/polydimethylsiloxane (DVB/CAR/PDMS) (1 cm) (Supelco Analytical, Bellefonte, Pa., U.S.) solid phase microextraction (SPME) fiber was exposed to the sample headspace for 2 minutes at 55° C. The SPME fiber was desorbed for 6 minutes at 250° C. in the injection port equipped with a SPME inlet liner at a split ratio of 10:1. Volatile aldehydes were separated on a Rtx-WAX capillary column (30 m, 0.25 mm i.d., 0.25 μm film thickness) (Restek, Bellefonte, Pa., U.S.). An oven program was followed to separate the different volatile aldehydes at a constant helium carrier gas flow rate of 1.22 mL/min. The oven program was as follows: hold at 40° C. for 1 minute; ramp at 10° C./min to 75° C.; ramp at 100° C./min to 250° C.; hold at 250° C. for 1.75 minutes. Detection and quantification of hexanal and 2-methylpentanal was achieved using a single quadrupole mass spectrometer (5977B, Agilent, Santa Clara, Calif., U.S.) coupled to the GC. The MS transfer line, quadrupole, and detector temperatures were set to 250° C., 230° C., 150° C., respectively. Mass spectra were collected in electron impact mode.

[3] = Antioxidant activity in the low-moisture model cracker system (overall lipid oxidation study); conditions: 153 μmol antioxidant
Method: Based on the concentrations of the individual AR stock solutions previously determined, an appropriate volume, containing 153 μmol of the respective individual AR homologue, was measured into plastic centrifuge tubes to prepare individual AR homologue treatments. […] The same procedure was carried out with 10 mM stock solutions of orcinol, α-tocopherol, and butylated hydroxytoluene (BHT) and all treatments were dried under a stream of nitrogen. Ethanol (1.0 mL) was added to the dried treatments (and a control treatment containing no antioxidant) and mixed with 10 g of melted ISO. […] Antioxidant-treated ISO was melted at 90° C. for 10 minutes and mixed in a stand mixer (KSM95, KitchenAid, Benton Harbor, Mich., U.S.) using a beater blade for 1 minute (speed 2). […] flour, salt, and baking soda were added and mixed using a beater blade for 1 minute (speed 2). Water was added and mixed using a dough hook for 1 minute (speed 2). The additional flour was sprinkled onto the surface of a baking mat and incorporated into the dough by kneading by hand (30 folds). The dough was flattened by passing it through a pasta roller (KPSA, KitchenAid, Benton Harbor, Mich., U.S.) twice (thickness setting 2). The sheeted dough was cut into 2.5 cm×2.5 cm crackers and baked on an ungreased baking sheet for 9 minutes at 163° C. (FD 53-UL, Binder, Tuttlingen, Germany). […] Individual AR homologues (C17:0, C19:0, C21:0, C23:0, C25:0) were added separately and as a mixture (AR Mix) to ISO and subsequently incorporated into the cracker samples. The antioxidant activities of the AR homologues in crackers were compared to orcinol (a water-soluble AR), conventional antioxidants (i.e., α-tocopherol, BHT), and a control treatment (i.e., no added antioxidant). The crackers were allowed to autoxidize in the absence of light and primary (i.e., lipid hydroperoxides) and secondary products (i.e., headspace hexanal) of lipid oxidation were measured as a function of time.

[4] = literature, same low-moisture model cracker system; cited from earlier work
[5] = oxygen radical absorbance capacity assay, earlier work of the Inventors; cited from earlier work
[6] = 153 μmol antioxidant in crackers, 55° C.
[7] = 153 μmol antioxidant in crackers

Row | Compound | course of lipid hydroperoxide formation after the lag phase (in words) [1, 6] | order of induction periods for lipid hydroperoxides [1] | storage day at which headspace hexanal began to increase (end of lag phase) [2] | order of induction periods for headspace hexanal [2] | antioxidant activity in the low-moisture model cracker system (in words) [3] | antioxidant activity against formation of lipid hydroperoxides and hexanal [4] | storage day at which lipid hydroperoxide concentration began to increase (end of lag phase) [1, 7] | activity concluded from headspace hexanal formation [2] | radical scavenging capacity [5] | activity concluded from lipid hydroperoxide formation ([1]; 153 μmol antioxidant in crackers, 55° C., compared to control crackers)
1 | CCCCCCCCCCCCCCCCCCCCCCCc1cc(O)cc(O)c1 [C23:0] | slow, steady increase | AR Mix≈C23:0>C25:0>(C21:0≈C19:0)>(C19:0≈BHT)>(BHT≈orcinol)>(orcinol≈C17:0)>control>>α-tocopherol | still in the lag phase of lipid oxidation at the conclusion of the study | C23:0>BHT>C25:0 AR Mix>C21:0>C19:0≈C17:0>control≈orcinol>>α-tocopherol | optimum activity; also recorded: more effective than BHT | – | – | – | – | –
2 | O=C(/C=C/c1ccc(O)c(O)c1)O[C@H](Cc1ccc(O)c(O)c1)C(=O)O [rosmarinic acid] | – | – | – | – | – | weak antioxidant and prooxidant activity | – | – | – | –
3 | CCCCCCCCCCCCCCCCCCCCCCCCCc1cc(O)cc(O)c1 [C25:0] | slow, steady increase | AR Mix≈C23:0>C25:0>(C21:0≈C19:0)>(C19:0≈BHT)>(BHT≈orcinol)>(orcinol≈C17:0)>control>>α-tocopherol | – | C23:0>BHT>C25:0 AR Mix>C21:0>C19:0≈C17:0>control≈orcinol>>α-tocopherol | more effective than BHT | – | – | – | – | –
4 | CCCCCCCCCCCCCCCCCc1cc(O)cc(O)c1 [C17:0] | – | AR Mix≈C23:0>C25:0>(C21:0≈C19:0)>(C19:0≈BHT)>(BHT≈orcinol)>(orcinol≈C17:0)>control>>α-tocopherol | 45 days | C23:0>BHT>C25:0 AR Mix>C21:0>C19:0≈C17:0>control≈orcinol>>α-tocopherol | – | – | 25 days | – | – | –
5 | Cc1cc(C(C)(C)C)c(O)c(C(C)(C)C)c1 [BHT, butylated hydroxytoluene] | slow, steady increase | AR Mix≈C23:0>C25:0>(C21:0≈C19:0)>(C19:0≈BHT)>(BHT≈orcinol)>(orcinol≈C17:0)>control>>α-tocopherol | – | C23:0>BHT>C25:0 AR Mix>C21:0>C19:0≈C17:0>control≈orcinol>>α-tocopherol | strong antioxidant activity | – | 25 days | – | – | –
6 | CCCCCCCCCCCCCCCCCCCCOC(=O)C(Cc1ccc(O)c(O)c1)OC(=O)C=Cc1ccc(O)c(O)c1 (stereo not shown) [eicosyl ester] | – | – | – | – | – | stronger antioxidant activity than rosmarinic acid and the dodecyl ester | – | – | – | –
7 | CCCCCCCCCCCCCCCCCCCc1cc(O)cc(O)c1 [C19:0] | – | AR Mix≈C23:0>C25:0>(C21:0≈C19:0)>(C19:0≈BHT)>(BHT≈orcinol)>(orcinol≈C17:0)>control>>α-tocopherol | 50 days | C23:0>BHT>C25:0 AR Mix>C21:0>C19:0≈C17:0>control≈orcinol>>α-tocopherol | – | – | 25 days | – | – | –
8 | Cc1cc(O)cc(O)c1 [orcinol] | oxidizing most rapidly | AR Mix≈C23:0>C25:0>(C21:0≈C19:0)>(C19:0≈BHT)>(BHT≈orcinol)>(orcinol≈C17:0)>control>>α-tocopherol | > 35 days | C23:0>BHT>C25:0 AR Mix>C21:0>C19:0≈C17:0>control≈orcinol>>α-tocopherol | weak to no antioxidant activity | – | 25 days | neither prooxidant or antioxidant activity | strongest antiradical activity | –
9 | CCCCCCCCCCCCCCCCCCCCCc1cc(O)cc(O)c1 [C21:0] | – | AR Mix≈C23:0>C25:0>(C21:0≈C19:0)>(C19:0≈BHT)>(BHT≈orcinol)>(orcinol≈C17:0)>control>>α-tocopherol | 70 days | C23:0>BHT>C25:0 AR Mix>C21:0>C19:0≈C17:0>control≈orcinol>>α-tocopherol | – | – | 25 days | – | – | –
10 | Cc1c(C)c2c(c(C)c1O)CC[C@@](C)(CCC[C@H](C)CCC[C@H](C)CCCC(C)C)O2 [α-tocopherol] | – | AR Mix≈C23:0>C25:0>(C21:0≈C19:0)>(C19:0≈BHT)>(BHT≈orcinol)>(orcinol≈C17:0)>control>>α-tocopherol | 5 days | C23:0>BHT>C25:0 AR Mix>C21:0>C19:0≈C17:0>control≈orcinol>>α-tocopherol | strong prooxidant activity | – | immediately upon storage | prooxidant behavior | – | prooxidant activity
